Source: ChEMBL document CHEMBL1144109, “Structures and cytotoxicity relationship of isoaaptamine and aaptamine derivatives” (J Nat Prod, 1999)
≈ marks a conversion by molar mass, not a printed value.

Key:
Assay type in all cases: functional, cell-based
P388 = assay: Cytotoxicity against mouse P388 cells after 3 days by MTT assay; conditions: P388, 72 h
[1] = Cytotoxicity against human KB16 cells after 3 days by MTT assay; conditions: KB16, 72 h
A549 = assay: Cytotoxicity against human A549 cells after 6 days by MTT assay; conditions: A549, 144 h
HT-29 = assay: Cytotoxicity against human HT-29 cells after 6 days by MTT assay; conditions: HT-29, 144 h

Work on CCCCCCCCC(=O)Oc1c(OC)cc2ccnc3c2c1N(C)C=C3 yielded an IC50 (P388) of 0.04 µg/mL (≈ 0.109 µM), an IC50 [1] of 33 µg/mL (≈ 89.6 µM) and an IC50 (A549) of 12 µg/mL (≈ 32.6 µM). For the same molecule, the IC50 (HT-29) was 3 µg/mL (≈ 8.14 µM).

Molecule CCCCCCCCCC(=O)Oc1c(OC)cc2ccnc3c2c1N(C)C=C3 has an IC50 (P388) of 0.03 µg/mL (≈ 0.0784 µM), an IC50 [1] of 20 µg/mL (≈ 52.3 µM) and an IC50 (A549) of 6.1 µg/mL (≈ 15.9 µM). The IC50 (HT-29) was 2.5 µg/mL (≈ 6.54 µM).

Work on CCCCCCCCCCCC(=O)Oc1c(OC)cc2ccnc3c2c1N(C)C=C3 yielded an IC50 (P388) of 0.03 µg/mL (≈ 0.0731 µM), an IC50 [1] of 20 µg/mL (≈ 48.7 µM) and an IC50 (A549) of 3.7 µg/mL (≈ 9.01 µM). For the same molecule, the IC50 (HT-29) was 2.5 µg/mL (≈ 6.09 µM).

For COc1cc2c3c(ccnc3c1OC)N(C(C)=O)CC2, the IC50 (P388) was 2.6 µg/mL (≈ 9.55 µM), the IC50 [1] was 32 µg/mL (≈ 118 µM) and the IC50 (A549) was 20 µg/mL (≈ 73.4 µM). The IC50 (HT-29) was 17 µg/mL (≈ 62.4 µM).

With CCCCCC(=O)N1CCc2cc(OC)c(OC)c3nccc1c23 the IC50 (P388) was 3.7 µg/mL (≈ 11.3 µM), the IC50 [1] was over 50 µg/mL and the IC50 (A549) was over 50 µg/mL. It also gave an IC50 (HT-29) of over 50 µg/mL.

In the case of COc1cc2ccnc3c2c(c1OC(C)=O)N(C)C=C3, the IC50 (P388) is reported as 4.2 µg/mL (≈ 15.5 µM), the IC50 [1] is reported as over 50 µg/mL and the IC50 (A549) is reported as over 50 µg/mL. It also gave an IC50 (HT-29) of over 50 µg/mL.

Molecule CCCCCCCCCCCCCCCCCC(=O)N1CCc2cc(OC)c(OC)c3nccc1c23 has an IC50 (P388) of 2.7 µg/mL (≈ 5.44 µM), an IC50 [1] of 20 µg/mL (≈ 40.3 µM) and an IC50 (A549) of over 50 µg/mL. For the same molecule, the IC50 (HT-29) was over 50 µg/mL.

CCC(=O)Oc1c(OC)cc2ccnc3c2c1N(C)C=C3 showed an IC50 (P388) of 1.4 µg/mL (≈ 4.92 µM), an IC50 [1] of 28 µg/mL (≈ 98.5 µM) and an IC50 (A549) of 18 µg/mL (≈ 63.3 µM). The IC50 (HT-29) was 13 µg/mL (≈ 45.7 µM).

Molecule CCCCCC(=O)Oc1c(OC)cc2ccnc3c2c1N(C)C=C3 has an IC50 (P388) of 0.7 µg/mL (≈ 2.14 µM), an IC50 [1] of 33 µg/mL (≈ 101 µM) and an IC50 (A549) of 13 µg/mL (≈ 39.8 µM). For the same molecule, the IC50 (HT-29) was 12 µg/mL (≈ 36.8 µM).

Molecule CCCCCCCC(=O)Oc1c(OC)cc2ccnc3c2c1N(C)C=C3 has an IC50 (P388) of 1.5 µg/mL (≈ 4.23 µM), an IC50 [1] of 15 µg/mL (≈ 42.3 µM) and an IC50 (A549) of 14 µg/mL (≈ 39.5 µM). For the same molecule, the IC50 (HT-29) was 12 µg/mL (≈ 33.9 µM).

Molecule CCCCCCC(=O)Oc1c(OC)cc2ccnc3c2c1N(C)C=C3 has an IC50 (P388) of 0.7 µg/mL (≈ 2.06 µM), an IC50 [1] of 38 µg/mL (≈ 112 µM) and an IC50 (A549) of 11 µg/mL (≈ 32.3 µM). The IC50 (HT-29) was 13 µg/mL (≈ 38.2 µM).

With CCCCC(=O)Oc1c(OC)cc2ccnc3c2c1N(C)C=C3 the IC50 (P388) was 1.8 µg/mL (≈ 5.76 µM), the IC50 [1] was 35 µg/mL (≈ 112 µM) and the IC50 (A549) was 13 µg/mL (≈ 41.6 µM). The IC50 (HT-29) was 9 µg/mL (≈ 28.8 µM).

CCCCCCCCCCCCCCCCCC(=O)Oc1c(OC)cc2ccnc3c2c1N(C)C=C3 gave an IC50 (P388) of 1.1 µg/mL (≈ 2.22 µM), an IC50 [1] of over 50 µg/mL and an IC50 (A549) of over 50 µg/mL. The IC50 (HT-29) was 21 µg/mL (≈ 42.4 µM).

CCCCCCCCCCCC(=O)N1CCc2cc(OC)c(OC)c3nccc1c23 gave an IC50 (P388) of 0.1 µg/mL (≈ 0.242 µM), an IC50 [1] of 7.8 µg/mL (≈ 18.9 µM) and an IC50 (A549) of 5.6 µg/mL (≈ 13.6 µM). For the same molecule, the IC50 (HT-29) was 9.6 µg/mL (≈ 23.3 µM).

For CCCCCCCCCCCCCC(=O)Oc1c(OC)cc2ccnc3c2c1N(C)C=C3, the IC50 (P388) was 0.3 µg/mL (≈ 0.684 µM), the IC50 [1] was 3.3 µg/mL (≈ 7.52 µM) and the IC50 (A549) was 5.6 µg/mL (≈ 12.8 µM). The IC50 (HT-29) was 2.7 µg/mL (≈ 6.16 µM).

Molecule CCCCCCCCCCCCCCCC(=O)Oc1c(OC)cc2ccnc3c2c1N(C)C=C3 has an IC50 (P388) of 0.1 µg/mL (≈ 0.214 µM), an IC50 [1] of 8 µg/mL (≈ 17.1 µM) and an IC50 (A549) of 7.3 µg/mL (≈ 15.6 µM). The IC50 (HT-29) was 9 µg/mL (≈ 19.3 µM).

Work on COc1cc2ccnc3c2c(c1OC)NC=C3 [AAPTAMINE] yielded an IC50 (P388) of 0.6 µg/mL (≈ 2.63 µM), an IC50 [1] of 3.9 µg/mL (≈ 17.1 µM) and an IC50 (A549) of 2.8 µg/mL (≈ 12.3 µM). For the same molecule, the IC50 (HT-29) was 6.9 µg/mL (≈ 30.2 µM).

For COC1=Cc2ccnc3c2C1=C(OC)NC=C3 [AAPTOSINE], the IC50 (A549) was over 50 µg/mL and the IC50 (HT-29) was over 50 µg/mL.

In the case of COC1=Cc2ccnc3ccnc(c23)C1=O [DEMETHYLOXY-AAPTAMINE], the IC50 (P388) is reported as 0.01 µg/mL (≈ 0.0471 µM), the IC50 [1] is reported as 0.1 µg/mL (≈ 0.471 µM) and the IC50 (A549) is reported as 0.3 µg/mL (≈ 1.41 µM).

Work on COc1cc2c3c(ccnc3c1OC)NCC2 [DIHYDROAAPTAMINE] yielded an IC50 (P388) of 1.8 µg/mL (≈ 7.82 µM), an IC50 [1] of 22 µg/mL (≈ 95.5 µM) and an IC50 (A549) of 23 µg/mL (≈ 99.9 µM). It also gave an IC50 (HT-29) of 47 µg/mL (≈ 204 µM).

In the case of COc1cc2ccnc3c2c(c1O)N(C)C=C3 [ISOAAPTAMINE], the IC50 (P388) is reported as 0.04 µg/mL (≈ 0.175 µM), the IC50 [1] is reported as 0.4 µg/mL (≈ 1.75 µM) and the IC50 (A549) is reported as 0.3 µg/mL (≈ 1.31 µM). The IC50 (HT-29) was 0.4 µg/mL (≈ 1.75 µM).
